Laboratory results published in US11389460B2, “Methods and compositions for treating endometrial cancer” (City of Hope, priority 2017, dated 2022).
Like-named read-outs stand apart in the source and are kept apart here.

Legend:
[1] = system: p-STAT3, p-AKT, p-ERK and ER-α; experiment: Western blot of cell signaling molecules in HEC-1A cells; format: cell-based, Human; settings: 24 h, single agents at various concentrations, combination 75 μM each
Description: (§1) Western blot analysis. Western blots were performed as described previously^55,56 Cells were grown in complete medium overnight and treated with DMSO or drugs at various concentrations for 24 hrs. Cells were washed in cold PBS and lysed in RIPA lysis buffer (Thermo Scientific) containing Halt protease and phosphatase inhibitors (Thermo Scientific). Proteins were quantified using BCA protein assay reagent (Thermo Scientific). Equal amounts of protein were separated by SDS-polyacrylamide gel electrophoresis, transferred to polyvinylidene fluoride membranes and incubated with total and phosphorylated protein-specific antibodies. Binding of the primary antibody was detected using a horseradish peroxidase (HRP)-conjugated secondary antibody and chemiluminescent substrates (Thermo Scientific).

[2] = system: advanced stage/recurrent endometrial cancer; settings: advanced stage / metastatic and recurrent endometrial cancer patients, cited from earlier work
[3] = system: cell survival molecules and cell cycle molecules (caspase 3, PARP, BCL-2, BCL-xl, cyclin D1, cyclin B1, CDK4); experiment: Western blot of cell survival and cell cycle molecules in HEC-1A cells; format: cell-based, Human; settings: 24 h, single agents at various concentrations, combination 75 μM each
Description: as §1

HEC-1A xenograft = HEC-1A xenograft mouse model; format: in vivo, nude mice; settings: oral gavage daily, 5 weeks; Pterostilbene 30 mg/kg, megestrol acetate 10 mg/kg, or both; versus vehicle
Description: Animal models. All animal studies were carried out under protocols approved by the Institutional Animal Care and Use Committee (IACUC) at City of Hope in accordance with all applicable federal, state, and local requirements and institutional guidelines. HEC-1A cells (2×10^6 in 100 μl) were inoculated subcutaneously into the right flank of 6- to 8-week-old female nude mice. Once the tumors were palpable, animals were randomized into groups of 10 to achieve an equal distribution of tumor sizes in all treatment groups. Mice were then treated by oral gavage daily with vehicle, Pterostilbene (30 mg/kg), megestrol acetate (10 mg/kg), or a combination of both agents. The doses for these two drugs were chosen based on previously published studies. Tumor volumes were assessed using calipers twice a week. Tumor volumes were determined using the formula (Width)^2×Length×0.52. Body weight was monitored weekly as an indicator of drug-induced toxicity and overall health of the mice.
Statistical analysis. Data are presented as mean±S.D. Student's t-test was used to compare the means of two groups. All the experiments were repeated 2 to 4 times. P<0.05 was considered statistically significant.

ECC-1 cells = experiment: Cell viability assay (MTS / acid phosphatase), combination index by Chou-Talalay; format: cell-based; settings: Homo sapiens, ECC-1, read-out: IC50 (concentration for 50% growth inhibition), pterostilbene alone, 48 h, one range printed for both cell lines
Description: (§2) Cell Culture. Human endometrial cancer cell lines HEC-1A and ECC-1 cells were from American Type Culture Collection (Rockville, Md.). […] All cells were grown in 5% (v/v) CO2 at 37° C.
(§3) Cell viability assays. Cells (4000 per well) were plated in 96-well plate format in 100 μl growth medium. Cells were treated with DMSO or drugs the next day at the indicated concentrations and incubated for an additional 2-3 days. Viable cells were determined either by the MTS assay (Promega, Madison, Wis., USA) or the acid phosphatase assay^53,54. For the MTS assay, 25 μl MTS solution was added directly into each well according to the manufacturer's instructions. For the acid phosphatase assay, all the media was removed and p-nitrophenyl phosphate substrate (10 mM 100 μl) was added into each well and incubated at 37° C. for 45 mins. […] The IC50 was determined using the Calcusyn software (Biosoft, Ferguson, Mo.).
(§4) Determination of combination index (CI). The combination index (CI) was determined using the Chou-Talalay method^37 using the Calcusyn software (Biosoft, MO).

HEC-1A cells = experiment: as above; format: cell-based; settings: Homo sapiens, read-out: IC50 (concentration for 50% growth inhibition), pterostilbene alone, 48 h, one range printed for both cell lines
Description: as §2, §3, §4

[4] = compared to Resveratrol; cited from earlier work
[5] = recent clinical trial; cited from earlier work

megestrol acetate [reference compound]
ER expression [1]: did not significantly alter
Expression of p-ERK1/2 [1]: did not significantly alter
Expression of p-STAT3 and p-AKT [1]: did not significantly alter
Response rate [2]: 20-30%
Response rate ([2]; listed as MA): 25-30%
Cleavage of caspase 3 [3]: little effect
Expression of BCL-2 and BCL-xl [3]: little effect
Expression of cyclin D1, cyclin B1 and CDK4 [3]: little impact
Tumor growth reduction (tumor volume and tumor weight) (HEC-1A xenograft): non-significant

COc1cc(/C=C/c2ccc(O)cc2)cc(OC)c1 [pterostilbene]
IC50 (ECC-1 cells): 72 to 78 µM
IC50 (HEC-1A cells): 72 to 78 µM
ER expression [1]: slightly decreased
Expression of p-ERK1/2 [1]: no significant effect
Expression of p-STAT3 and p-AKT [1]: no significant effect
Bioavailability [4]: superior bioavailability as compared to Resveratrol
Dose generally safe for use in humans [5]: up to 250 mg/day
Cleavage of caspase 3 [3]: increased cleavage
Expression of BCL-2 and BCL-xl [3]: decrease
Expression of cyclin D1, cyclin B1 and CDK4 [3]: inhibited
Tumor growth reduction (tumor volume and tumor weight) (HEC-1A xenograft): non-significant
